The text below walks through data of ChEMBL document CHEMBL2417387, “Development of a pharmacophore model for the catecholamine release-inhibitory peptide catestatin: virtual screening and functional testing identify novel small molecule therapeutics of hypertension” (Bioorg Med Chem, 2013).

One may read the IC50 as the point on the concentration scale where inhibition reaches its midpoint.

Calls of active or inactive are those of the source. The calls are words filed in the database; no cut-off is given here.

Data set [1] is described as follows: Inhibition of nicotinic cholinergic receptor in rat PC12 cells assessed as inhibition of nicotine-stimulated [3H]-norepinephrine release after 30 mins by liquid scintillation counting analysis. The data set is classed as cell-based. The note with it: PC-12.
The test system of data set [2] is PC-12. The data set is described as follows: (§1) Inhibition of nicotinic cholinergic receptor in rat PC12 cells assessed as inhibition of nicotine-stimulated 45Ca2+ uptake after 2 mins by liquid scintillation counting analysis. Format: cell-based.
Data set [3] can be described thus: as §1. Format: cell-based. The note with it: PC-12, 2 min.
Data set [4] relates to PC-12. The experiment in a line: Inhibition of ionomycin-mediated catecholamine secretion in rat PC12 cells at 5 uM after 30 mins by liquid scintillation counting analysis. Format: functional, cell-based.
The test system of data set [5] is PC-12. The experiment in a line: Inhibition of BaCl2-induced potassium channel blockade in rat PC12 cells assessed as inhibition of catecholamine secretion at 5 uM after 30 mins by liquid scintillation counting analysis. Format: functional, cell-based.
In data set [6] the test system is PC-12. The experiment in a line: Inhibition of nicotinic cholinergic receptor-mediated [3H]-norepinephrine release in rat PC12 cells after 30 mins by liquid scintillation counting analysis. The data set is classed as cell-based.
Data set [7] relates to PC-12. The data set is described as follows: Inhibition of ATP-induced P2X receptor activation in rat PC12 cells assessed as inhibition of catecholamine secretion at 5 uM after 30 mins by liquid scintillation counting analysis. Format: cell-based.
The test system of data set [8] is PC-12. The experiment in a line: Cytotoxicity against rat PC12 cells assessed as cell viability at 5 to 10 uM after 24 hrs by trypan blue exclusion assay relative to control. The data set is classed as cell-based. Particulars: pc-12, 24 h.
For data set [9], the system named is PC-12. The data set is described as follows: Inhibition of KCl-induced membrane depolarization in rat PC12 cells assessed as inhibition of catecholamine secretion at 5 uM after 30 mins by liquid scintillation counting analysis. Format: functional, cell-based.
Data set [10] has as its system PC-12. The experiment in a line: Noncompetitive inhibition of nicotinic cholinergic receptor in rat PC12 cells assessed as inhibition of 100 to 1000 uM nicotine-induced [3H]-norepinephrine release at 5 uM after 30 mins by liquid scintillation counting analysis. Format: cell-based.
Data set [11] relates to Mus musculus. The experiment in a line: Antihypertensive activity in BPH/2J mouse polygenic hypertensive model assessed as reduction in systolic blood pressure at 5 ug/g, ip up to 60 mins by telemetry. The data set is classed as functional, Artery.
Data set [12] has as its system Mus musculus. The data set is described as follows: Antihypertensive activity in BPH/2J mouse polygenic hypertensive model assessed as reduction in diastolic blood pressure at 5 ug/g, ip up to 60 mins by telemetry. The data set is classed as functional, Artery.
In data set [13] the test system is Mus musculus. The data set is described as follows: Toxicity in BPH/2J mouse polygenic hypertensive model assessed as reflex tachycardia at 5 ug/g, ip measured for 24 hrs by telemetry. The data set is classed as organism-based. The note with it: in vivo.
In data set [14] the test system is Mus musculus. The experiment in a line: Antihypertensive activity in BPH/2J mouse polygenic hypertensive model assessed as reduction in heart rate at 5 ug/g, ip measured for 24 hrs by telemetry. The data set is classed as functional.

As to `O=C(Nc1cc(C2=NCCN2)cc(C2=NCCN2)c1)Nc1cc(C2=NCCN2)cc(C2=NCCN2)c1`, the IC50 in data set [1] was > 5 µM.
Regarding `C/N=C(\NC)c1ccc(NC(=O)Nc2cccc(NC(=O)Nc3ccc(/C(=N/C)NC)cc3)c2)cc1`, the IC50 stood at 0.041 µM in data set [1] and 0.07 µM in data set [3]. Also, in the data set on PC-12 [2], the inhibition result is “Dose-dependent effect”.
In the case of `Cc1cc(NC(=O)NCc2ccc(N3C(N)=NC(N)=NC3(C)C)cc2)ccc1S(=O)(=O)F`, the half-inhibitory concentration (IC50) in data set [1] stood at 0.87 µM.
Still for that read-out and setting: in the case of `Nc1ccc(CCCCc2nc(N)nc(N)c2-c2ccc(Cl)c(Cl)c2)cc1` it was 2.6 µM.
On to `C/N=C(\NC)c1ccc(NC(=O)Nc2ccc(C)c(NC(=O)Nc3ccc(/C(=N/C)NC)cc3)c2)cc1`, for which the IC50 in data set [1] worked out at 0.024 µM; in data set [3], 0.1 µM. Also, the inhibition result with PC-12 [2] was “Dose-dependent effect”.
On to `CCN1CCC(CNc2cc(C)nc(NC(=N)Nc3ccc(Cl)c(Cl)c3)n2)C1` (configuration not stated), for which the IC50 in data set [1] turned out to be 0.45 µM.
Still for that read-out and setting: the figure for `CNC(=O)c1ccc(NC(=O)Nc2cccc(C3=NCCN3)c2)cc1NC(=O)Nc1cccc(C2=NCCN2)c1` is 1.4 µM.
The same measure, in the same setting: the figure for `Cc1ccnc(NS(=O)(=O)c2ccc(/N=N/c3cc(/N=N/c4ccccc4)c(N)nc3N)cc2)n1` is > 5 µM; for `CCN/C(=N\c1cccc(C2=NCCN2)c1)c1ccc(/C(=N/c2cccc(C3=NCCN3)c2)NCC)cc1` it is 1.6 µM; for `Nc1nc(N)c(/N=N/c2ccc(S(=O)(=O)Nc3ccccn3)cc2)cc1/N=N/c1ccccc1` it is 2 µM.
Still for that read-out and setting: in the case of `CCN1CCCC(Nc2cc(C)nc(NC(=N)Nc3ccc(Cl)c(Cl)c3)n2)C1` (configuration not stated) it was 1.1 µM.
Take `Nc1nc(N)c(-c2ccc(Cl)cc2)c(CCc2ccc(NC(=O)CBr)cc2)n1`: the 50% inhibitory concentration (IC50) in data set [1] was 1.5 µM.
As to `CCN(CC)CC(O)CNC1=N/C(=N/C(=N)Nc2ccc(Cl)c(Cl)c2)N=C(C)C1` (configuration not stated), the inhibition result in the data set with PC-12 [4], in the data set on PC-12 [5], in the data set with PC-12 [6], in the data set with PC-12 [7] and in the data set on PC-12 [9] was “inactive” each time. Besides, in [1], the IC50 stood at 0.68 µM. Further, the Activity entry with PC-12 [8] is “Non-toxic”. In the data set on PC-12 [10], the inhibition entry is “Active”.
Regarding `C[N+](C)(C)CC[N+]1(C)Cc2c(Cl)c(Cl)c(Cl)c(Cl)c2C1`, in the data set with PC-12 [10], the inhibition entry is “Active”.
As to `C/N=C(\NC)c1ccc(/N=C(\NC)c2ccc(/C(=N/c3ccc(/C(=N/C)NC)cc3)NC)cc2)cc1`, the concentration for half-maximal inhibition (IC50) in data set [1] was 1.7 µM.
As to `CNC(=O)c1cc(NC(=O)Nc2cccc(C3=NCCN3)c2)cc(NC(=O)Nc2cccc(C3=NCCN3)c2)c1`, the inhibition result in the data set with PC-12 [4], with PC-12 [5], in the data set on PC-12 [6], in the data set on PC-12 [7] and in the data set with PC-12 [9] was “inactive” in each case. Moreover, the IC50 in data set [1] is 1 µM; in [3], 0.1 µM. Also, the inhibition result in the data set on PC-12 [2] is “Dose-dependent effect”. The Activity result with PC-12 [8] is given as “Non-toxic”. Moreover, the inhibition entry in the data set with PC-12 [10] is “Active”.
For `CCN1CCC(CNc2cc(C)nc(NC(=N)Nc3cc(Cl)cc(Cl)c3)n2)C1` (configuration not stated), the IC50 in data set [1] was 1.9 µM.
With `CC1(C)N=C(N)N=C(N)N1c1ccc(CNC(=O)Nc2ccccc2)cc1`, the IC50 in data set [1] is > 5 µM.
Turning to `C/C(=N\NC(=N)N)c1cccc(NC(=S)Nc2cccc(/C(C)=N/NC(=N)N)c2)c1`, the Activity is listed as 33 mmHg in the data set with Mus musculus [11], 25 mmHg in the data set on Mus musculus [12], “Non-toxic” in the data set with Mus musculus [13] and 180 bpm in the data set with Mus musculus [14]. In addition, the figures for the IC50 in [1] and in data set [3] were 0.017 µM and 0.09 µM, respectively. For the same compound, the inhibition result in the data set on PC-12 [2] is “Dose-dependent effect”.
For `C/N=C(\N)c1ccc(/N=C(\N)c2ccc(Cl)c(/C(N)=N/c3ccc(C(=N)NC)cc3)c2)cc1`, the IC50 in data set [1] came to 1.8 µM.
On the same count and under the same terms, in the case of `Nc1nc(N)c2nc(CNc3ccc(C(=O)N[C@@H](CCC(=O)O)C(=O)O)cc3)cnc2n1` [AMINOPTERIN] it was > 5 µM.
